Patent US20130252930A1 (BIOMARIN PHARMACEUTICAL INC., priority 2010, published 2013)
Where two headings read alike, the source gives them in different places. Values belong to the molecule of their own block, whether it stands above or below them.

How the values were obtained:
[1] = target: T1, CYP17 (human testicular microsome) (Homo sapiens, UniProt P05093); assay: CYP17 enzymatic assay (% inhibition at 1 nM) (Biological Example 12); type: biochemical
T1 construct: using microsomal fraction from human testis (Celsis Cat #S00110) as the enzyme source; tissue Celsis S00110; host or cells: human testis microsomal fraction
T1 sequence (P05093 1-508): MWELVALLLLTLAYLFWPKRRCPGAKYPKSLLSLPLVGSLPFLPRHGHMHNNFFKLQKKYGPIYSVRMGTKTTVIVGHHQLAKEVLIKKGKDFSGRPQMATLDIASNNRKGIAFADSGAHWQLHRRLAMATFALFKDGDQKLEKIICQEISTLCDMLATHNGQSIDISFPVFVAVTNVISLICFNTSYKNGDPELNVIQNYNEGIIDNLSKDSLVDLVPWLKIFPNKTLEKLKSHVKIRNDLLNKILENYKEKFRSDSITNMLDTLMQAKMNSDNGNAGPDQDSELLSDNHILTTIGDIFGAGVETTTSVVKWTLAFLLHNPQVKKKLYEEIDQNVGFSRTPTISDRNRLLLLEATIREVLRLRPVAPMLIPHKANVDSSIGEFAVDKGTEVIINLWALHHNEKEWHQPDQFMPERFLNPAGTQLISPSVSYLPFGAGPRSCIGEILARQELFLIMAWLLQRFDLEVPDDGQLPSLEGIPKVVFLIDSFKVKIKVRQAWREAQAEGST

[2] = target: T2, Cyp21 enzyme (Human HEK 293-Cyp21 stable transfected cells) (Homo sapiens, UniProt P08686); assay: CYP21-HEK293 enzymatic assay (% inhibition at 100 nM) (Biological Example 10); type: cell-based; conditions: HEK 293-Cyp21 cells
T2 construct: expressed in transfected cells
T2 sequence (P08686 1-495): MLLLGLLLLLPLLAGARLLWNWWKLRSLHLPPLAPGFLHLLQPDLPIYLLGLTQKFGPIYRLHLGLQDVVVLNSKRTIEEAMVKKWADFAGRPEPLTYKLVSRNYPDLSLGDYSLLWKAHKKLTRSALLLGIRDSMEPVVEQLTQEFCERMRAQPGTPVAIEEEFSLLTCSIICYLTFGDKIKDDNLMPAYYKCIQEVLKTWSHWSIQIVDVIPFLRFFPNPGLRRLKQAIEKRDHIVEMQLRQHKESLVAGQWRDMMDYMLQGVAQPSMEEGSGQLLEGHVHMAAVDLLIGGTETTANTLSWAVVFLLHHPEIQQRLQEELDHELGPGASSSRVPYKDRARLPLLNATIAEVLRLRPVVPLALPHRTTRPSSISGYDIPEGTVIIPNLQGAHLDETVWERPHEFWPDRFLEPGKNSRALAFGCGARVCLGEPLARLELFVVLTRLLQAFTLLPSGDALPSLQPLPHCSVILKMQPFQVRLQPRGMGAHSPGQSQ
Protocol: Proceeding using methods similar to those described in Biological Example 11, the percent inhibition at 100 nM was measured.
This assay was used to determine compound activity against Cyp21 enzyme. Human HEK 293-Cyp21 stable transfected cells (maintained in complete growth media DMEM+10% FBS, supplemented with 125 ug/mL Hygromycin) were seeded in a 96-well plate at 20,000 cells/well/100 uL in DMEM plus 10% FBS and allowed to attach overnight. The next day, 20 μL medium was carefully removed and 10 μL of 10× pre-made compounds in DMEM+10% FBS+10% methanol was transferred to the wells to final concentrations of 1000, 100, 10, 1, or 0.1 nM. Mock treatment was 1% methanol in growth media and the cells were left at 37° C., 5% CO2 for 5 hr. After the incubation, 10 μL of substrate progesterone (Sigma) was added to the wells to make a final concentration of 10 μM. The cells were incubated the cells at 37° C. for 20 hr. At the end of incubation, 90 μL of conditioned media was removed to measure DOC level by ELISA.
Preparation of the DOC ELISA: 100 μL of coating buffer (0.025M PBS pH 7.4) containing 200 ng/mL DOC-3-carboxymethyloxime-BSA (Steraloids. inc, Cat#3469-000) was added to each well of a 96-well plate and incubated overnight at 4° C. The next day, the plates were washed twice with 250 μl of wash solution (0.015M PBS pH 7.4 containing 0.05% Tween 20). After being washed, the wells were blocked with 250 μL blocking buffer (3% BSA in 0.025M PBS, pH 7.4) at 37° C. for 2 h. The plates were washed again 3 times as before, and then 90 μL of sample /standards (prepared in complete growth media) was added into the appropriate wells followed by 10 μL of antibody solution (1:450 rabbit anti-DOC in 0.6% BSA/PBS). The plates were incubated at room temperature for 2 h on a shaker. The contents of the wells were removed and the plate was washed 4 times. After the final wash, 100 μL of secondary antibody (1:12000 HRP-goat-anti-rabbit IgG conjugate 0.6% BSA/PBS) was added into each well. The plate was incubated at 30° C. for 45 min. The plate was washed again 4 times and 100 μL of TMB substrate solution was added to each well. The plate was incubated at room temperature for 10 min. 100 μL of stop solution was added to each well and the optical density was read at 450 nm.
The mean absorbance value for each sample was used to determine the corresponding concentration from the standard curve. Data was analyzed with “log(antagonist) vs response variable slope” under “non-linear regression analysis” using Prism5 software.

[3] = target: T1, CYP17 (human testicular microsome); assay: CYP17 enzymatic assay (IC50) (Biological Example 4); type: biochemical; conditions: human testicular microsome
[4] = target: T1, CYP17 (human testicular microsome); assay: CYP17 enzymatic assay (% inhibition at 10 nM), version 1 (Biological Example 5); type: biochemical
[5] = Human liver microsome stability assay (Biological Example 8b); conditions: liver microsomes, pH 7.4
[6] = target: T2, Cyp21 enzyme (Human HEK 293-Cyp21 stable transfected cells); assay: CYP21-HEK293 enzymatic assay (IC50) (Biological Example 11); type: cell-based; conditions: HEK 293-Cyp21 cells; read-out: CYP21-HEK293 enzymatic assay IC50 (Biological Example No. 11)
[7] = 100 nM compound, read-out: Biological Example No. 10: CYP21-HEK293 percent inhibition at 100 nM
[8] = DHEA by ELISA, read-out: Biological Example No. 4: CYP17 enzymatic assay IC50
[9] = 10 nM compound, DHEA by ELISA, read-out: Biological Example No. 5: CYP17 percent inhibition at 10 nM (version 1)
[10] = read-out: CYP17 enzymatic assay IC50 (Biological Example No. 4)
[11] = compound at 1 nM, read-out: CYP17 enzymatic assay % inhibition at 1 nM (Biological Example No. 12)
[12] = compound at 100 nM, read-out: CYP21-HEK293 enzymatic assay % inhibition at 100 nM (Biological Example No. 10)
[13] = read-out: Biological Example No. 4: CYP17 enzymatic assay IC50
[14] = compound at 100 nM, read-out: Biological Example No. 10: CYP21-HEK293 enzymatic assay % inhibition at 100 nM

Structure (SMILES): C[C@]12CCC(=O)C=C1CCC1C2CC[C@]2(C)C(c3cccnc3)=CCC12 (stereo partly drawn) [B, (10R,13S)-10,13-dimethyl-17-(pyridin-3-yl)-6,7,8,9,10,11,12,13,14,15-decahydro-1H-cyclopenta[a]phenanthren-3(2H)-one, reference compound]
inhibition at 0.001 µM ([1]; 1 nM compound, DHEA by ELISA, read-out: Biological Example No. 12: CYP17 percent inhibition at 1 nM): > 50%
inhibition at 0.1 µM [2, 7]: ≥ 30%

IC50 [3, 8]: < 11 nM
inhibition at 0.1 µM [2, 7]: < 30%
inhibition at 0.01 µM [4, 9]: 50 to 80%
Structure (SMILES): Cc1cncc(C2=CC[C@H]3[C@@H]4CCC5=CC(=O)N(C)CC[C@]5(C)[C@H]4CC[C@]23C)c1 [Compound 54]

IC50 [3, 8]: < 11 nM
inhibition at 0.1 µM [2, 7]: ≥ 30%
inhibition at 0.01 µM [4, 9]: 50 to 80%
Structure (SMILES): COc1cncc(C2=CC=C3[C@@H]4CCC5=CC(=O)NCC[C@]5(C)[C@H]4CC[C@]23C)c1 [Compound 86, (5aR,7aS)-8-(5-methoxypyridin-3-yl)-5a,7a-dimethyl-4,5,5a,5b,6,7,7a,10b,11,12-decahydrocyclopenta[5,6]naphtho[2,1-c]azepin-3(2H)-one]

IC50 [3, 8]: < 11 nM
inhibition at 0.1 µM [2, 7]: ≥ 30%
inhibition at 0.01 µM [4, 9]: > 80%
half-life at 1 μM [5]: 1 to 50 min
Structure (SMILES): C[C@]12CCCC(=O)CC1=CCC1[C@@H]2CC[C@]2(C)C(n3ccnc3)=CC[C@@H]12 (stereo partly drawn) [Compound 107, (3aS,10aR,10bS,12aS)-1-(1H-imidazol-1-yl)-10a,12a-dimethyl-3,3a,3b,4,8,9,10,10a,10b,11,12,12a-dodecahydrocyclohepta[a]cyclopenta[f]naphthalen-7(6H)-one]

inhibition at 0.1 µM [2, 7]: ≥ 30%
inhibition at 0.01 µM [4, 9]: > 80%
half-life at 1 μM [5]: 1 to 50 min
Structure (SMILES): C[C@]12CCCC(=O)CC1=CC[C@@H]1[C@@H]2CC[C@]2(C)C(c3cnccn3)=CC[C@@H]12 [Compound 142, 10a,12a-dimethyl-1-(pyrazin-2-yl)-3,3a,3b,4,8,9,10,10a,10b,11,12,12a-dodecahydrocyclohepta[a]cyclopenta[f]naphthalen-7(6H)-one]

inhibition at 0.1 µM [2, 7]: ≥ 30%
inhibition at 0.01 µM [4, 9]: 50 to 80%
Structure (SMILES): CCc1cncc(C2=CC[C@H]3[C@@H]4CCC5=CC(=O)N(C)CC[C@]5(C)[C@H]4CC[C@]23C)c1 [Compound 145]

IC50 [3, 8]: < 11 nM
inhibition at 0.1 µM [2, 7]: ≥ 30%
inhibition at 0.01 µM [4, 9]: > 80%
half-life at 1 μM [5]: 1 to 50 min
Structure (SMILES): COc1cncc(C2=CC=C3[C@@H]4CCC5=CC(=O)N(C)CC[C@]5(C)[C@H]4CC[C@]23C)c1 [Compound 159]

inhibition at 0.1 µM [2, 7]: < 30%
inhibition at 0.01 µM [4, 9]: 50 to 80%
Structure (SMILES): Cc1cncc(C2=CC=C3[C@@H]4CCC5=CC(=O)N(C)CC[C@]5(C)[C@H]4CC[C@]23C)c1 [Compound 160]

IC50 [3, 10]: < 11 nM
inhibition at 0.001 µM [1, 11]: 10 to 50%
inhibition at 0.1 µM [2, 12]: ≥ 30%
inhibition at 0.01 µM ([4]; compound at 10 nM, read-out: CYP17 enzymatic assay % inhibition at 10 nM (Biological Example No. 5)): > 80%
Structure (SMILES): CN1CC[C@@]2(C)C(=CC1=O)CC[C@H]1C3=CC=C(c4cnccn4)[C@@]3(C)CC[C@@H]12 [Compound 184, (5aR,7aS)-3,5a,7a-trimethyl-8-(pyrazin-2-yl)-3,4,5,5a,5b,6,7,7a,11,12-decahydrocyclopenta[5,6]naphtho[1,2-d]azepin-2(10bH)-one]

Structure (SMILES): CON=C1C=C2CCC3C4=CC=C(c5cccnc5)[C@@]4(C)CCC3[C@@]2(C)CC1 (stereo partly drawn) [Compound 287, (10R,13S)-10,13-dimethyl-17-(pyridin-3-yl)-6,7,8,9,10,11,12,13-octahydro-1H-cyclopenta[a]phenanthren-3(2H)-one O-methyl oxime]
IC50 [3, 10]: < 11 nM
inhibition at 0.001 µM [1, 11]: 10 to 50%
IC50 [6]: > 100 nM
inhibition at 0.1 µM [2, 12]: ≥ 30%
half-life at 1 μM [5]: > 50 min

Structure (SMILES): C[C@]12CCC3C(CCC4=CC(=NO)CC[C@@]43C)C1=CC=C2c1cccnc1 (stereo partly drawn) [Compound 288, (10R,13S)-10,13-dimethyl-17-(pyridin-3-yl)-6,7,8,9,10,11,12,13-octahydro-1H-cyclopenta[a]phenanthren-3(2H)-one oxime]
IC50 [3, 10]: < 11 nM
inhibition at 0.001 µM [1, 11]: > 50%
inhibition at 0.1 µM [2, 12]: < 30%
half-life at 1 μM [5]: 1 to 50 min

Structure (SMILES): CC1CC2C3=CC=C(c4cncc(N)c4)[C@@]3(C)CCC2[C@@]2(C)CCC(=O)C=C12 (stereo partly drawn) [Compound 329, (10R,13S)-17-(5-aminopyridin-3-yl)-6,10,13-trimethyl-6,7,8,9,10,11,12,13-octahydro-1H-cyclopenta[a]phenanthren-3(2H)-one]
IC50 [3, 13]: < 11 nM
inhibition at 0.1 µM [2, 14]: < 30%

Structure (SMILES): C[C@]12CCC3C(CCC4=CC(=O)CC[C@@]43C)C1=CC=C2c1cncc(N)c1 (stereo partly drawn) [Compound 360, (10R,13S)-17-(5-aminopyridin-3-yl)-10,13-dimethyl-6,7,8,9,10,11,12,13-octahydro-1H-cyclopenta[a]phenanthren-3(2H)-one]
IC50 [3, 13]: < 11 nM
inhibition at 0.1 µM [2, 14]: < 30%

Structure (SMILES): C[C@]12CCC(=O)C=C1CC[C@@H]1[C@@H]2CC[C@]2(C)C(c3cccnc3)CC[C@@H]12 (stereo partly drawn) [Compound 419, (10R,13S)-10,13-dimethyl-17-(pyridin-3-yl)-6,7,8,9,10,11,12,13,14,15,16,17-dodecahydro-1H-cyclopenta[a]phenanthren-3(2H)-one]
inhibition at 0.001 µM [1, 11]: 10 to 50%
inhibition at 0.1 µM [2, 12]: ≥ 30%
